Results as given in patent publication US20210330683A1, “COMPOSITIONS AND METHODS FOR ENHANCED DELIVERY OF ANTIVIRAL AGENTS” (POVIVA CORP., priority 2020, published 2021).

Assay: Plasma exposure (pharmacokinetics) of darunavir and efavirenz after oral administration of formulations
Conditions: for concentration at 1 h / concentration at 2 h: male, Sprague-Dawley, 10 mg/kg, average plasma concentration
Protocol: In this study, the exposure and distribution of darunavir and efavirenz were evaluated following oral administration in male Sprague-Dawley rats. Four cohorts of 10 rats each were used in this study. The first cohort involved darunavir using the disclosed formulations and the second cohort darunavir in a control formulation. The third cohort involved efavirenz using the disclosed formulations and the fourth cohort efavirenz in a control formulation.
Formulations were administered orally (PO) at 10 mg/kg of darunavir or efavirenz. Following dosing, blood, urine and fecal samples were collected up to 8-hour post dose (groups 1, 3, 5, and 7) or 24-hour post dose (groups 2, 4, 6, and 8). Brain tissue was collected at 8 hours or 24 hours, following the 8 hour or 24-hour urine and feces sample collection. Plasma, urine, feces, and brain tissue concentrations of the analytes were determined by LC-MS/MS. Plasma pharmacokinetic parameters were determined using WinNonlin (v8.0) software.
Plasma, urine, feces, and brain tissue samples were extracted and analyzed using the methods described as follows.
Analytical stock solutions (1.00 mg/mL of the free drug) were prepared in DMSO. Sample Homogenization Brain tissue and feces samples were homogenized with a Virsonic 100 ultrasonic homogenizer. Each brain tissue sample was first weighed, and then an appropriate volume of 20:80 methanol:water was added to make a 2 mL/gram sample. Samples were then homogenized on ice, and stored frozen until analysis. Feces samples were homogenized with 20:80 MeOH:water (8 mL/gram of tissue) prior to extraction. Standard Preparation (Plasma, Urine, and Brain) Standards were prepared in rat plasma containing sodium heparin as the anticoagulant, or in blank tissue homogenate. Working solutions were prepared in 50:50 acetonitrile:water. Working solutions were then added to blank matrix to make calibration standards to final concentrations of 1000, 500, 250, 100, 75.0, 50.0, 25.0, and 10 ng/mL. Standards were treated identically to the study samples. Sample Extraction (Plasma, Urine, Feces, and Brain) Plasma, urine, feces, and brain tissue samples were manually extracted via acetonitrile precipitation in a 96-well plate. Urine samples were diluted a minimum of 5-fold into blank rat plasma prior to extraction. Diluted urine samples were quantified against the rat plasma calibration curve. Brain and feces tissue homogenates were quantified against calibration curves prepared in matched blank tissue homogenate.

[1] = rat, in vivo, po, animals given the control formulation, rats
[2] = rat, plasma, po, animals given the control formulation, rats
[3] = rat, plasma, po, test animals (disclosed test formulation), rats

concentration at 1 h [2] [ng/mL] | concentration at 2 h [2] [ng/mL] | concentration at 1 h [3] [ng/mL] | concentration at 2 h [3] [ng/mL] | plasma concentration with disclosed compositions versus control formulations (rat, in vivo, po) | Structure (SMILES) | concentration at 1 h [1] [ng/mL] | concentration at 2 h [1] [ng/mL] | concentration at 2 h (rat, in vivo, po, test animals (disclosed test formulation), rats) [ng/mL] | plasma concentration with disclosed compositions versus control formulations (oral, rats, disclosed formulation compared with control formulation)
 |  |  |  |  | CC(C)CN(C[C@@H](O)[C@H](Cc1ccccc1)NC(=O)O[C@H]1CO[C@H]2OCC[C@H]21)S(=O)(=O)c1ccc(N)cc1 [darunavir] | ~185 | ~63 | ~153 | double the plasma concentration
~139 | ~117 | ~133 | ~142 | higher levels than control formulations | O=C1Nc2ccc(Cl)cc2[C@@](C#CC2CC2)(C(F)(F)F)O1 [efavirenz] |  |  |  | 
